Source: patent US20080138391A1, “SKIN-FRIENDLY DRUG COMPLEXES FOR TRANSDERMAL ADMINISTRATION” (priority 2006, published 2008)

Test: Appearance of the composition and solubilization of the drug
Assay type: physicochemical
Method: Following here is an exemplary description of the manufacturing process used to make the pharmaceutical compositions of the present invention. Generally, the active agent is introduced either alone or as a solution in a colloidal dispersion of carbomer. […] If desired, further ingredients such as cosolvents, buffering agents, antioxidants, preservatives, permeation enhancers, etc, as mentioned herein above were added under mechanical stirring.

For `CCCN(CCC)CCc1cccc2c1CC(=O)N2` [ropinirole free base, ropinirole], the “Amount of ropinirole free base solubilized in water as a result of complexation with carbomer” value (complexation with carbomer, alcohol-free) was “at least 3.00 % w/w” and the “Solubility of ropinirole free base in water” value (no complexation) was “practically insoluble in water”.
